“Also recorded” adds a separate entry of the source.
Columns and labels:
IL-1 receptor (IL-1R) = target: T1, IL-1 receptor (IL-1R) (Mus musculus, UniProt P13504); conditions: PTB induced by IL-1β, LTA or LPS; cited from earlier work
T1 construct: host or cells: pregnant mice, in vivo
T1 sequence (P13504 20-576): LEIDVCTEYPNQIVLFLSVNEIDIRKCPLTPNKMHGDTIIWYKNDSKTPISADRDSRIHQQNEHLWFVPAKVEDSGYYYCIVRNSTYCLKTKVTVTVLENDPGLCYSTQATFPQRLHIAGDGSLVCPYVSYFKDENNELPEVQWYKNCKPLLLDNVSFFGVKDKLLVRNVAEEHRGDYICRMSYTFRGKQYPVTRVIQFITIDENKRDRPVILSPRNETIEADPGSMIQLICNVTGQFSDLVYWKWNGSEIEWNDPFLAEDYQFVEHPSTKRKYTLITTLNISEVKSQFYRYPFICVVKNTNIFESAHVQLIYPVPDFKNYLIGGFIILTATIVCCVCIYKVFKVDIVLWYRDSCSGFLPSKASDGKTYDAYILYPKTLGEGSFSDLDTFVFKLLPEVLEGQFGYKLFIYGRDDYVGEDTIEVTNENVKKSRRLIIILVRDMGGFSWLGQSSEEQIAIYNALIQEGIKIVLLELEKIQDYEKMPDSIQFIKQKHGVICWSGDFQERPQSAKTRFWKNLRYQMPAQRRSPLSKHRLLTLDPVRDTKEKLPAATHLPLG

[1] = mouse; cited from earlier work
IL-1 receptor = target: T2, IL-1 receptor (Mus musculus, UniProt P13504); conditions: LPS-treated mice; cited from earlier work
T2 construct: host or cells: pregnant mice, in vivo
T2 sequence (P13504 20-576): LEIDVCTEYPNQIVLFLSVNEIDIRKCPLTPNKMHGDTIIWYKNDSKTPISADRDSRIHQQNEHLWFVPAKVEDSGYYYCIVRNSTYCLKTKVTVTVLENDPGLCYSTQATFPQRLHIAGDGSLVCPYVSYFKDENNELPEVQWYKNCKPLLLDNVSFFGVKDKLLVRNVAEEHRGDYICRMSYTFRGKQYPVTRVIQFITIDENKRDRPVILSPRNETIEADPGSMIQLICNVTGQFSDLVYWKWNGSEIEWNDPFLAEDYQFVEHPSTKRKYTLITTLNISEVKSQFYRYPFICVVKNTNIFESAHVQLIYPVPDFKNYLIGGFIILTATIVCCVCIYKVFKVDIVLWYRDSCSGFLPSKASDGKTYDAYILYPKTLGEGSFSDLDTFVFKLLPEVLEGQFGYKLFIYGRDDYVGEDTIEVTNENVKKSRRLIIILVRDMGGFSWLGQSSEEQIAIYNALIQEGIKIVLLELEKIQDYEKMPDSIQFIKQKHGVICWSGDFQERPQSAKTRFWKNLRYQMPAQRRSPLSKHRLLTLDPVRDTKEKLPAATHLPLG

CD-1 mice [2] = experiment: Neutrophil (Ly-6G+) invasion of mouse lower uterus and fetal brain, immunohistochemistry; format: in vivo; conditions: IL-1β on GD 16 without or with rytvela; compared to sham control; p<0.05
Description: (§1) CD-1 mice were ordered from Charles-River Laboratories Canada (Montreal, QC, Canada) and housed by Health Sciences Laboratory Animal Services at the University of Alberta. (Edmonton, AB, Canada) on a standard diet. Six groups of mice were euthanized at GD15, 17, 18, 18.5, 19 during spontaneous labor, and post-partum (PP)-1 Four groups of mice were anesthetized under isoflurane and a 1.5 cm-tall median incision was made in the lower abdominal wall. The lower segment of the right uterine hom was exposed, IL-1β (3 μg) or vehicle (0.9% saline) was injected between two fetal membranes, and the abdominal muscle layer and skin were sutured. Rytvela (1 mgikg, Elim Biopharmaceuticals, Hayward, CA) or vehicle (0.9% saline) was injected i.p. in a total volume of 100 μL saline, the first dose of which was given 30 min prior to administration of stimuli and three doses every 12 h thereafter. Animals were monitored for the onset of preterm labor (PTL) using infrared video camera recording commencing at GD16.5. Mice were euthanized at the onset of PTL or at GD17 From all ten groups of mice, lower uteri, upper uteri, placentas, fetal membranes and cervices were collected and normalized to wet tissue weight (100 mg/mL) in Dulbecco's Modified Eagle's Medium (DMEM) F-12 (Thermo Fisher Scientific, MA, USA). These tissues were homogenized by TissueLyser II (QIAGEN, Hilden, Germany) according to the manufacturer's protocol and centrifuged at 4° C., 13,000×g for 10 min to extract total protein. Maternal whole blood was collected via cardiac puncture. Whole fetuses (n=2 per dam) were also collected.
Six cryosections (7 μm) per treatment group were prepared from snap-frozen lower uteri and fetal heads (n=2 per dam) and stained for neutrophils using a goat anti-mouse Ly-6G antibody (Invitrogen, Carlsbad, CA, USA) and a rat anti-goat secondary antibody tagged with an Alexa Fluor 488 fluorescence marker (Invitrogen). Cells were counterstained using Hoechst 33342 (Thermo Fisher Scientific) and tissue homology was confirmed with a hematoxylin and eosin stain (Thermo Fisher Scientific). Four different fields (20× optical zoom) were counted per section by two observers blinded to the specimen details. Areas containing blood vessels and leukocytes within blood vessels were excluded. The arithmetic mean was calculated for each sample between the two observers. In the fetus, we focused on leukocyte invasion of the brain because of the evidence associating maternal inflammation and adverse outcomes to the fetal brain (15, 28).

[3] = tested on: peripheral mouse leukocytes; experiment: Cytokine mRNA abundance in peripheral leukocytes of pregnant mice, RT-qPCR; format: in vivo; conditions: GD 17 after IL-1β on GD 16, without or with rytvela; p<0.05
Description: (§2) CD-1 mice were ordered from Charles-River Laboratories Canada (Montreal, QC, Canada) and housed by Health Sciences Laboratory Animal Services at the University of Alberta. (Edmonton, AB, Canada) on a standard diet. Six groups of mice were euthanized at GD15, 17, 18, 18.5, 19 during spontaneous labor, and post-partum (PP)-1 Four groups of mice were anesthetized under isoflurane and a 1.5 cm-tall median incision was made in the lower abdominal wall. The lower segment of the right uterine hom was exposed, IL-1β (3 μg) or vehicle (0.9% saline) was injected between two fetal membranes, and the abdominal muscle layer and skin were sutured. […] Animals were monitored for the onset of preterm labor (PTL) using infrared video camera recording commencing at GD16.5. […]
Total RNA was extracted from mouse whole blood using the RNeasy protect animal blood system (Qiagen, Hilden, Germany) according to the manufacturer's protocol. RNA concentration were determined using a NanoDrop 1000 spectrophotometer to measure the optical density (OD) photometrically at 280 nm and 260 nm (an OD260 nm/280 nm ratio of >1.8 was considered protein-free RNA). cDNA was synthesized from 500 ng RNA using qScript cDNA SuperMix (Quanta Biosciences, MA, USA) according to the manufacturer's protocol. […]

mouse leukocytes = experiment: Mouse leukocyte migration assay (mLMA) with GD 18.5 lower uterus chemoattractant; format: in vivo; conditions: GD 17 after IL-1β on GD 16, without or with rytvela, p<0.05
Description: (§3) CD-1 mice were ordered from Charles-River Laboratories Canada (Montreal, QC, Canada) and housed by Health Sciences Laboratory Animal Services at the University of Alberta. (Edmonton, AB, Canada) on a standard diet. Six groups of mice were euthanized at GD15, 17, 18, 18.5, 19 during spontaneous labor, and post-partum (PP)-1 Four groups of mice were anesthetized under isoflurane and a 1.5 cm-tall median incision was made in the lower abdominal wall. The lower segment of the right uterine hom was exposed, IL-1β (3 μg) or vehicle (0.9% saline) was injected between two fetal membranes, and the abdominal muscle layer and skin were sutured. Rytvela (1 mgikg, Elim Biopharmaceuticals, Hayward, CA) or vehicle (0.9% saline) was injected i.p. in a total volume of 100 μL saline, the first dose of which was given 30 min prior to administration of stimuli and three doses every 12 h thereafter. Animals were monitored for the onset of preterm labor (PTL) using infrared video camera recording commencing at GD16.5. […]
(§4) Total leukocytes were isolated from whole blood using HetaSep (Stemcell Technologies Canada Inc., BC. Canada) according to the manufacturer's protocol. […] Fluorescence in each well was measured using a Fluoroskan Ascent (Thermo Fisher Scientific), and the number of chemoattracted leukocytes was calculated using 4 parameter logistic regression.

CD-1 mice [4] = experiment: IL-1β-induced preterm birth (PTB) and fetal death in pregnant mice; format: in vivo, mouse; conditions: for fetal death: IL-1β on GD 16 without or with rytvela, fetuses at GD 17
Description: as §1

hFM explants = hFM explants treated with IL-1β; conditioned medium tested in LMA; format: cell-based, human
Description: Leukocyte migration assay (LMA). The LMA was carried out with the Modified Boyden chemotaxis chambers (AP48; Neuro Probe, Gaithersburg, MD, USA) as we published (19). The chamber is divided into the upper and lower berths. Twenty-five microliters of fetal membrane extracts were placed in the lower chamber of each well. DMEM, as a negative control, was placed in the lower chamber. A polycarbonate membrane with 3 μm pores (Neuro Probe, Gaithersburg. MD, USA) was next placed over the lower chamber, followed by a rubber gasket. Then 100,000 isolated leukocytes from whole blood of pregnant women were placed in the upper chamber of each well. The chambers were incubated for 90 min at 37′C in a humidified air incubator containing 5% CO2. After incubation, migrated leukocytes were removed from the lower chamber and put into 5 mL BD Falcon™ polystyrene round bottom tubes (Thermo Fischer Scientific K.K., Yokohama, Japan). Three hundred microliters of OptiLyse (Beckman Coulter, Beckman Coulter, Inc., Brea, CA, USA) were added to lyse RBCs, and the sample was vortexed immediately for 1 sec. The tube was incubated for 15 min at room temperature (20-25° C.) while protected from light. […] 1×PBS was added to each tube. […] The lower chamber samples were then kept covered in a 4′C cold room until quantification using flow cytometry (BD FACS Verse, BD Biosciences, Tokyo, Japan). […]

TL leukocytes = TL leukocytes incubated with hFM conditioned medium -/+ IL-1β; double conditioned medium as chemoattractant in LMA; format: cell-based, human; conditions: TL leukocytes treated with IL-1β plus hFM explant conditioned medium; fresh TL leukocytes migrate
Description: Leukocyte migration assay (LMA). The LMA for FIGS. 6 and 7 was performed as described above with the exception that 200,000 leukocytes were placed into the upper chamber. The LMA for FIGS. 3, 5 and FIG. 10 was performed using non-commercial, 3D printed Boyden chambers that produced nearly identical results to our published work with commercial Boyden chambers with the exception that the cutoff for predicting delivery within 7 days was 4575 cells (see FIG. 10 for more information).
Leukocyte Incubation with hFM Conditioned Medium. Conditioned medium from hFM explants was prepared as described previously (23). TL leukocytes were incubated with this single conditioned medium for 1 h at 37° C. and gentle agitation using a stir bar to prevent clumping. The supernatant was isolated via density centrifugation and used as the chemoattractant in an LMA to assess the further contribution of the leukocytes to the conditioned medium. This is referred to as ‘double conditioned medium.’ The pelleted TL leukocytes were resuspended in RPMI, and their responsiveness to GCF was assessed using an LMA.

mouse lower uterus [5] = experiment: KC and MIP-2 protein in mouse lower uterus extracts, multiplex; format: in vivo; conditions: IL-1β on GD 16, lower uterus at GD 17
Description: as §2
Mouse lower uterus tissue was suspended in DMEM-F12 medium (Thermo Fisher Scientific Inc., Ottawa, ON, Canada) at 100 mg wet tissue weight/mL and homogenized by TissueLyser II (Qiagen, Hilden, Germany) according to the manufacturer's instructions. […] Keratinocyte chemoattractant (KC) and macrophage inflammatory protein (MIP)-2 levels were measured by Bio-Plex Multiplex Immunoassay kit (Bio-Rad Laboratories, Hercules, CA, USA) according to the manufacturer's instructions.

mouse lower uterus [6] = experiment: Mouse lower uterine chemoattractant assessed by leukocyte migration assay (LMA); format: in vivo; conditions: IL-1β on GD 16, chemoattractant on GD 17
Description: as §3
as §4, with “regression. […]” for “regression.”

Row | Molecule | PTB (IL-1 receptor (IL-1R)) | transfer from mother to fetus [1] | neutrophil infiltration (invasion) of fetal membranes (IL-1 receptor) | neutrophil density in fetal brain (CD-1 mice [2]) | neutrophil density in lower (maternal) uterus (CD-1 mice [2]) | leukocyte mRNA abundance of IL-1β, IL-6, TNF-α and CCL2 [3] | mouse leukocyte migration (mouse leukocytes) | PTB (in words) (CD-1 mice [4]; FIG. 11A, n=5-7 per group) | fetal death (CD-1 mice [4]) | fetal death (CD-1 mice [4]; listed as Rytvela) | PTB rate (CD-1 mice [4]; rytvela co-administered with IL-1β (GD 16)) [%] | chemoattractant release from hFM explants (hFM explants; TNL and TL hFM explants -/+ IL-1β, TL leukocytes in LMA) | TNL leukocyte sensitivity to migration after hFM explant conditioned medium (hFM explants; hFM explants pretreated with IL-1β 6 h, TNL leukocytes incubated 1 h, TL chemoattractant) | leukocyte chemoattractant release (TL leukocytes) | KC protein in lower uterus (mouse lower uterus [5]) | MIP-2 protein in lower uterus (mouse lower uterus [5]) | lower uterine chemoattractant (mouse lower uterus [6]) | PTB rate (CD-1 mice [4]; IL-1β administered on GD 16, PTB on GD 17) [%]
1 | rytvela | blocked | does not transfer from mother to fetus | blocked | blocked the increase in neutrophil density | blocked the increase in neutrophil density | blocked | blocked | inhibited | normal GD 17 fetuses | prevented fetal death | 0 | – | – | – | – | – | – | –
2 | IL-1β: Interleukin (IL)-1β, mediator of infectious and sterile-inflammatory preterm birth; used to induce PTB in mice (protein, UniProt P10749 118-269, looked up) Interleukin-1 beta: VPIRQLHYRLRDEQQKSLVLSDPYELKALHLNGQNINQQVIFSMSFVQGEPSNDKIPVALGLKGKNLYLSCVMKDGTPTLQLESVDPKQYPKKKMEKRFVFNKIEVKSKVEFESAEFPNWYISTSQAEHKPVFLGNNSGQDIIDFTMESVSS | – | – | – | increased detection of Ly-6G+ neutrophils | increased detection of Ly-6G+ neutrophils | – | increased leukocyte migration | – | increased fetal death; also recorded: undergoing resorption | – | – | did not promote more chemoattractant release | had no effect | greater leukocyte chemoattractant release | stimulated increases | stimulated increases | did not stimulate an increase | 86

Reference: patent publication US20240302368A1, “MIGRATION OF HUMAN PERIPHERAL LEUKOCYTES IN RESPONSE TO CHEMOTACTIC FACTORS DURING PREGNACY” (The Governors of the University of Alberta, priority 2021, published 2024)
